Reference: patent publication US11760756B2, “Crystalline form of a PD-1/PD-L1 inhibitor” (Incyte Corporation, priority 2020, dated 2023)

How the values were obtained:
Assay type in all cases: physicochemical
[1] = Thermogravimetric Analysis (TGA), decomposition; details: ramp from 25° C. to 300° C. at 10° C./min
Source text: X-Ray Powder Diffraction (XRPD): Compound 1 crystalline forms were characterized by XRPD. The X-Ray Powder Diffraction (XRPD) was obtained from Bruker D8 Advance ECO X-ray Powder Diffractometer (XRPD) instrument. The general experimental procedures for XRPD were: (1) X-ray radiation from copper at 1.5418 Å and LYNXEYE™ detector; (2) X-ray power at 40 kV, 25 mA; and (3) the sample powder was dispersed on a zero-background sample holder. The general measurement conditions for XRPD were: Start Angle 3 degrees; Stop Angle 30 degrees; Sampling 0.015 degrees; and Scan speed 2 degree/min. Differential Scanning calorimetry (DSC): Compound 1 crystalline forms were characterized by DSC. The DSC was obtained from TA Instruments Differential Scanning calorimetry, Discovery DSC2500 with auto sampler. The DSC instrument conditions were as follows: 20-300° C. at 10° C./min; Tzero aluminum sample pan and lid; and nitrogen gas flow at 50 mL/min. Thermogravimetric Analysis (TGA): Compound 1 crystalline forms were also characterized by TGA. The TGA was obtained from TA Instruments Thermogravimetric Analyzer, Discovery TGA5500 with auto sampler. The general experimental conditions for TGA were: ramp from 25° C. to 300° C. at 10° C./min; nitrogen purge gas flow at 25 mL/min; platinum sample holder.

[2] = solid state form stability under water, humidity and drying conditions
Protocol: (§1) Form I is a non-solvate and non-hydrate crystalline form. On DSC, it first undergoes dehydration at below 125° C. followed by melting at around 148-160° C. […] On TGA, approximately 2.4% weight loss is observed at below 120° C., which is mainly due to dehydration. The compound decomposes above 160° C. after melting. Like the amorphous powder of Compound 1 drug substance, this non-solvate and non-hydrate crystalline form (Form I) is hygroscopic. […] It decomposes above 160° C. after melting. During water dynamic vapor sorption (DVS) analysis of this non-solvate and non-hydrate crystalline form (Form I), approximately 6.5% of water was absorbed at 80% RH and 25° C. for this crystalline form and the sample was pre-dried at 50° C. under dried nitrogen (N2) for 1 hour before the DVS analysis. For comparison, approximately 12% of water was absorbed at 80% RH and 25° C. for the amorphous powder.
(§2) Like the amorphous powder of Compound 1 drug substance, this meta-stable non-solvate crystalline form (Form IV) is hygroscopic. During water dynamic vapor sorption (DVS) analysis of this non-solvate crystalline form (Form IV), approximately 8.2% of water was absorbed at 80% RH and 25° C. for this crystalline form and the sample was pre-dried at 25° C. under dried nitrogen (N2) for 1 hour before the DVS analysis.

[3] = water dynamic vapor sorption (DVS) analysis; details: for water absorbed (DVS): 80% RH and 25° C., sample pre-dried under dried nitrogen for 1 hour (Form I at 50° C., Form IV at 25° C.)
Protocol: as §1, §2

Cc1c(Nc2nccc3cc(CN4CC[C@@H](O)C4)cnc23)cccc1-c1cccc(-c2nc3cc(CN4CC[C@@H](C(=O)O)C4)cc(C#N)c3o2)c1C [Form I, (R)-1-((7-cyano-2-(3′-(3-(((R)-3-hydroxypyrrolidin-1-yl)methyl)-1,7-naphthyridin-8-ylamino)-2,2′-dimethylbiphenyl-3-yl)benzo[d]oxazol-5-yl)methyl)pyrrolidine-3-carboxylic acid]
decomposition temperature (TGA) [1]: above 160 °C | change in solid state form / hydrate formation ([2]; after stirring in water at ambient temperature for overnight): no change in solid state form | change in solid state form / hydrate formation ([2]; cycling from 5% RH to 95% RH and back to 5% RH at 25° C. and 5% RH interval): no change in solid state form | change in solid state form / hydrate formation ([2]; drying under dry nitrogen gas (N2) at 25° C. for one day): no change in solid state form | change in solid state form / hydrate formation ([2]; humidifying under 95% RH/25° C. for three days): no change in solid state form | thermodynamic stability of the crystalline form ([2]; under the current investigated process conditions): thermodynamically most stable crystalline form | hygroscopicity [3]: hygroscopic | water absorbed (DVS) [3]: approximately 6.5% | crystalline form change in the solid state after the DVS analysis [3]: No crystalline form change was observed

Cc1c(Nc2nccc3cc(CN4CC[C@@H](O)C4)cnc23)cccc1-c1cccc(-c2nc3cc(CN4CC[C@@H](C(=O)O)C4)cc(C#N)c3o2)c1C [Form II, (R)-1-((7-cyano-2-(3′-(3-(((R)-3-hydroxypyrrolidin-1-yl)methyl)-1,7-naphthyridin-8-ylamino)-2,2′-dimethylbiphenyl-3-yl)benzo[d]oxazol-5-yl)methyl)pyrrolidine-3-carboxylic acid]
decomposition temperature (TGA) [1]: above 170 °C

Cc1c(Nc2nccc3cc(CN4CC[C@@H](O)C4)cnc23)cccc1-c1cccc(-c2nc3cc(CN4CC[C@@H](C(=O)O)C4)cc(C#N)c3o2)c1C [Form III, (R)-1-((7-cyano-2-(3′-(3-(((R)-3-hydroxypyrrolidin-1-yl)methyl)-1,7-naphthyridin-8-ylamino)-2,2′-dimethylbiphenyl-3-yl)benzo[d]oxazol-5-yl)methyl)pyrrolidine-3-carboxylic acid]
decomposition temperature (TGA) [1]: above 160 °C

Cc1c(Nc2nccc3cc(CN4CC[C@@H](O)C4)cnc23)cccc1-c1cccc(-c2nc3cc(CN4CC[C@@H](C(=O)O)C4)cc(C#N)c3o2)c1C [Form IV, (R)-1-((7-cyano-2-(3′-(3-(((R)-3-hydroxypyrrolidin-1-yl)methyl)-1,7-naphthyridin-8-ylamino)-2,2′-dimethylbiphenyl-3-yl)benzo[d]oxazol-5-yl)methyl)pyrrolidine-3-carboxylic acid]
decomposition temperature (TGA) [1]: above 140 °C | crystalline form after further drying ([2]; drying on the filter at ambient temperature for 3-6 days, residual THF approximately 0.1 wt %): remained unchanged | hygroscopicity [3]: hygroscopic | water absorbed (DVS) [3]: approximately 8.2% | crystalline form change in the solid state after the DVS analysis [3]: No crystalline form change was observed

Cc1c(Nc2nccc3cc(CN4CC[C@@H](O)C4)cnc23)cccc1-c1cccc(-c2nc3cc(CN4CC[C@@H](C(=O)O)C4)cc(C#N)c3o2)c1C [Form V, (R)-1-((7-cyano-2-(3′-(3-(((R)-3-hydroxypyrrolidin-1-yl)methyl)-1,7-naphthyridin-8-ylamino)-2,2′-dimethylbiphenyl-3-yl)benzo[d]oxazol-5-yl)methyl)pyrrolidine-3-carboxylic acid]
decomposition temperature (TGA) [1]: above 160 °C

Cc1c(Nc2nccc3cc(CN4CC[C@@H](O)C4)cnc23)cccc1-c1cccc(-c2nc3cc(CN4CC[C@@H](C(=O)O)C4)cc(C#N)c3o2)c1C [amorphous powder, (R)-1-((7-cyano-2-(3′-((3-(((R)-3-hydroxypyrrolidin-1-yl)methyl)-1,7-naphthyridin-8-yl)amino)-2,2′-dimethyl-[1,1′-biphenyl]-3-yl)benzo[d]oxazol-5-yl)methyl)pyrrolidine-3-carboxylic acid]
decomposition temperature (TGA) [1]: above 170 °C | hygroscopicity [3]: hygroscopic | water absorbed (DVS) [3]: approximately 12%
